Laboratory results as given in patent US4068070A, “α-Cyanoamine compounds and a process for producing the same” (Fuji Chemical Industry Co., Ltd., priority 1974, dated 1978).

Columns and labels:
Type in all cases: in vivo, mongrel adult dogs
[1] = test system: coronary sinus out flow; assay: Effects on coronary sinus out flow
Method: (§1) All experiments were made on male and female thoractomized mongrel adult dogs weighing about 10 kg. under anesthesia with pentobarbital sodium. Compounds A, D, E and F were suspended in 0.2% CMC solution, Compound B dissolved in hydrochloric acid solution (pH 6), and Compound C and active placebo being dissolved in physiological saline solution. Animals were administered the drug intravenously on brachiuma with either test compound or active placebo.
(§2) Arterial blood pressure was measured by pressure transducer (Nippon Koden MPU-0.5) connected with the cannula inserted from exposed carotid artery into aorta. Aortic blood flow was determined by means of electromagnetic flow meter (Nippon Koden MF-5) mounted at the origin of the aorta. Coronary sinus out flow and coronary sinus oxygen tension were assessed by means of electromagnetic flow meter (Nippon Koden MF-5) and P02 macro electrode (Beokmann Moder 160-C), respectively using Morawitz cannulization technique. Heart rate was measured by cardiotachometer (Nippon Koden RT-2) synchronized with systolic blood pressure of aorta.

[2] = test system: coronary sinus oxygen tension; assay: Effects on coronary sinus oxygen tension
Method: as §1, §2

[3] = test system: heart rate; assay: Effects on heart rate
Method: as §1, §2

SMILES: COc1ccc(C(C#N)N2CCN(CC(=O)N3CCCC3)CC2)cc1OC (stereo not shown) [Compound C]
- Changes(%) of basal values, coronary sinus out flow ([1]; 6.0 mg/kg i.v., 30 min): +14.3%
- Changes(%) of basal values, coronary sinus out flow ([1]; 6.0 mg/kg i.v., 40 min): +7.6%
- Changes(%) of basal values, coronary sinus out flow ([1]; 6.0 mg/kg i.v., imm.): +58.2%
- Changes(%) of basal values, coronary sinus out flow ([1]; 20.0 mg/kg i.v., 1 min): +103.2%
- Changes(%) of basal values, coronary sinus out flow ([1]; 20.0 mg/kg i.v., 5 min): +92.1%
- Changes(%) of basal values, coronary sinus out flow ([1]; 20.0 mg/kg i.v., 10 min): +80.8%
- Changes(%) of basal values, coronary sinus out flow ([1]; 20.0 mg/kg i.v., 20 min): +56.2%
- Changes(%) of basal values, coronary sinus out flow ([1]; 20.0 mg/kg i.v., 30 min): +36.2%
- Changes(%) of basal values, coronary sinus out flow ([1]; 20.0 mg/kg i.v., 40 min): +30.0%
- Changes(%) of basal values, coronary sinus out flow ([1]; 20.0 mg/kg i.v., imm.): +101.9%
- Effects on coronary sinus out flow (in words) ([1]; i.v., anesthetized dogs): a marked increasing effect on coronary sinus out flow, which was proportioned to doses thereof and of long duration
- Changes(%) of basal values, coronary sinus oxygen tension ([2]; 2.0 mg/kg i.v., 1 min): +5.4%
- Changes(%) of basal values, coronary sinus oxygen tension ([2]; 2.0 mg/kg i.v., 5 min): +2.8%
- Changes(%) of basal values, coronary sinus oxygen tension ([2]; 2.0 mg/kg i.v., 10 min): +2.0%
- Changes(%) of basal values, coronary sinus oxygen tension ([2]; 2.0 mg/kg i.v., 20 min): +1.1%
- Changes(%) of basal values, coronary sinus oxygen tension ([2]; 2.0 mg/kg i.v., 30 min): 0%
- Changes(%) of basal values, coronary sinus oxygen tension ([2]; 2.0 mg/kg i.v., 40 min): 0%
- Changes(%) of basal values, coronary sinus oxygen tension ([2]; 2.0 mg/kg i.v., imm.): +12.1%
- Changes(%) of basal values, coronary sinus oxygen tension ([2]; 6.0 mg/kg i.v., 1 min): +29.2%
- Changes(%) of basal values, coronary sinus oxygen tension ([2]; 6.0 mg/kg i.v., 5 min): +22.3%
- Changes(%) of basal values, coronary sinus oxygen tension ([2]; 6.0 mg/kg i.v., 10 min): +19.8%
- Changes(%) of basal values, coronary sinus oxygen tension ([2]; 6.0 mg/kg i.v., 20 min): +15.0%
- Changes(%) of basal values, coronary sinus oxygen tension ([2]; 6.0 mg/kg i.v., 30 min): +14.3%
- Changes(%) of basal values, coronary sinus oxygen tension ([2]; 6.0 mg/kg i.v., 40 min): +12.0%
- Changes(%) of basal values, coronary sinus oxygen tension ([2]; 6.0 mg/kg i.v., imm.): +36.9%
- Changes(%) of basal values, coronary sinus oxygen tension ([2]; 20.0 mg/kg i.v., 1 min): +96.2%
- Changes(%) of basal values, coronary sinus oxygen tension ([2]; 20.0 mg/kg i.v., 5 min): +86.7%
- Changes(%) of basal values, coronary sinus oxygen tension ([2]; 20.0 mg/kg i.v., 10 min): +70.4%
- Changes(%) of basal values, coronary sinus oxygen tension ([2]; 20.0 mg/kg i.v., 20 min): +63.7%
- Changes(%) of basal values, coronary sinus oxygen tension ([2]; 20.0 mg/kg i.v., 30 min): +60.9%
- Changes(%) of basal values, coronary sinus oxygen tension ([2]; 20.0 mg/kg i.v., 40 min): +51.5%
- Changes(%) of basal values, coronary sinus oxygen tension ([2]; 20.0 mg/kg i.v., imm.): +79.1%
- Effects on coronary sinus oxygen tension (in words) ([2]; i.v., anesthetized dogs): a significant increase in coronary sinus oxygen tension, effect of which was of long duration
- Changes(%) of basal values, heart rate ([3]; 2.0 mg/kg i.v., 1 min): +1.1%
- Changes(%) of basal values, heart rate ([3]; 2.0 mg/kg i.v., 5 min): +0.3%
- Changes(%) of basal values, heart rate ([3]; 2.0 mg/kg i.v., 10 min): -0.2%
- Changes(%) of basal values, heart rate ([3]; 2.0 mg/kg i.v., 20 min): 0%
- Changes(%) of basal values, heart rate ([3]; 2.0 mg/kg i.v., 30 min): 0%
- Changes(%) of basal values, heart rate ([3]; 2.0 mg/kg i.v., 40 min): 0%
- Changes(%) of basal values, heart rate ([3]; 2.0 mg/kg i.v., imm.): -2.8%
- Changes(%) of basal values, heart rate ([3]; 6.0 mg/kg i.v., 1 min): +5.1%
- Changes(%) of basal values, heart rate ([3]; 6.0 mg/kg i.v., 5 min): +1.3%
- Changes(%) of basal values, heart rate ([3]; 6.0 mg/kg i.v., 10 min): -0.3%
- Changes(%) of basal values, heart rate ([3]; 6.0 mg/kg i.v., 20 min): -1.0%
- Changes(%) of basal values, heart rate ([3]; 6.0 mg/kg i.v., 30 min): 0%
- Changes(%) of basal values, heart rate ([3]; 6.0 mg/kg i.v., 40 min): 0%
- Changes(%) of basal values, heart rate ([3]; 6.0 mg/kg i.v., imm.): -5.3%
- Changes(%) of basal values, heart rate ([3]; 20.0 mg/kg i.v., 1 min): +0.8%
- Changes(%) of basal values, heart rate ([3]; 20.0 mg/kg i.v., 5 min): +1.6%
- Changes(%) of basal values, heart rate ([3]; 20.0 mg/kg i.v., 10 min): -1.0%
- Changes(%) of basal values, heart rate ([3]; 20.0 mg/kg i.v., 20 min): -1.4%
- Changes(%) of basal values, heart rate ([3]; 20.0 mg/kg i.v., 30 min): -28%
- Changes(%) of basal values, heart rate ([3]; 20.0 mg/kg i.v., 40 min): -2.0%
- Changes(%) of basal values, heart rate ([3]; 20.0 mg/kg i.v., imm.): -25.6%
- Effects on heart rate (in words) ([3]; i.v., anesthetized dogs): a slight negative chronotropic effect
